Literature values as cited in patent publication US20160051468A1, “Compositions for Prevention and/or Treatment of Gastrointestinal Imbalances in Digestive Disorders” (BRIGHT DRINKS INC., priority 2013, published 2016).

What was measured:
[1] = tested on: H. pylori
[2] = tested on: DNA; settings: hydroxyl radical attack, in vitro
[3] = tested on: NF-κB; settings: human IEC lines; by inhibiting I-κB kinase activity
[4] = in vitro, compared with other tea catechins
[5] = tested on: TNFα; settings: LPS-stimulated macrophage cell line; dose-response fashion
[6] = tested on: NF-κB; settings: human colon carcinoma cell line

| SMILES | minimum-inhibitory-concentration (MIC) for 90% of isolates ([1]; 110 mostly clinical isolates of H. pylori) | concentration with bactericidal effect ([1]; H. pylori in vitro) | concentration with bacteriostatic effect ([1]; H. pylori in vitro) | reduction of oxidative damage sustained by DNA [2] | NF-κB activation [3] | scavenging of superoxide anion and hydroxyl radical [4] | TNFα protein levels [5] | suppression of NF-κB reporter activity, relative potency [6] |
| --- | --- | --- | --- | --- | --- | --- | --- | --- |
| O=C(O[C@@H]1Cc2c(O)cc(O)cc2O[C@@H]1c1cc(O)c(O)c(O)c1)c1cc(O)c(O)c(O)c1 [EGCG, epigallocatechin gallate] | 32 μg per mL | 4 times the MIC | 2 times the MIC | highly active | blocking NF-κB activation | most effective of all catechins | significant decrease | – |
| CCC(=O)O [Propionate] | – | – | – | – | – | – | – | equipotent |
| CC(=O)O [acetate] | – | – | – | – | – | – | – | slightly less effective |
